Assay results from patent US9156845B2, “4-(substituted amino)-7H-pyrrolo[2,3-d] pyrimidines as LRRK2 inhibitors” (Pfizer Inc., priority 2012, dated 2015).

Tests used:
Experiment in all cases: ActivX kinase probe assay (human PBMC)
Type in all cases: binding
AKT2, AKT3 = system: AKT2, AKT3
AMPKa1, AMPKa2 = system: AMPKa1, AMPKa2
CaMK1a = CaMK1a (Homo sapiens (Human), UniProt Q14012); settings: CaMK1a, read-out: percent inhibition
CaMK2d = CaMK2d (Homo sapiens (Human), UniProt Q13557); settings: CaMK2d, read-out: percent inhibition
CDK5 = CDK5 (Homo sapiens (Human), UniProt Q00535); settings: CDK5, read-out: percent inhibition
CDK5, sequence (Q00535 whole entry): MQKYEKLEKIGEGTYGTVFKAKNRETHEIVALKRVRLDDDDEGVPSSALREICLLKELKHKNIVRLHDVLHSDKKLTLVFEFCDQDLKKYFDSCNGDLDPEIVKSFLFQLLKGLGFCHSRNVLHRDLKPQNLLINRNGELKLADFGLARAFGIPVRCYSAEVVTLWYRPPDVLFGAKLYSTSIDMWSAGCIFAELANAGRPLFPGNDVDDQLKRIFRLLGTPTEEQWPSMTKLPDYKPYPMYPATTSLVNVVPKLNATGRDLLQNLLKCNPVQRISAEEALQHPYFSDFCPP

CHK2 = CHK2 (Homo sapiens (Human), UniProt O96017); settings: CHK2, read-out: percent inhibition
CHK2, sequence (O96017 whole entry): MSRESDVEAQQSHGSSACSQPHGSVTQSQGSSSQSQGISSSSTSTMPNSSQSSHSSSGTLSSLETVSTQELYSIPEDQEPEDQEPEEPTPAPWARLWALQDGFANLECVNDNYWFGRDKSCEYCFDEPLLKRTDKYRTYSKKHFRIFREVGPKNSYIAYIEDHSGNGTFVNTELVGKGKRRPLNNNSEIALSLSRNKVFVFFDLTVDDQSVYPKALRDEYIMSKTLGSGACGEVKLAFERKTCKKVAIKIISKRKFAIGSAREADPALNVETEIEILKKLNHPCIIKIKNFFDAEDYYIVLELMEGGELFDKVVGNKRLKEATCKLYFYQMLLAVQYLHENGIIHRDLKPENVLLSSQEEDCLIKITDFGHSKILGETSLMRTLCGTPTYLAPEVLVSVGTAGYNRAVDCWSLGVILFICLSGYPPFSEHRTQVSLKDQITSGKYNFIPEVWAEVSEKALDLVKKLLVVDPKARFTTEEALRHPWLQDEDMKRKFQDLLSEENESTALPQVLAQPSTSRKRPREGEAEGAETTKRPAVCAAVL

EphA1 = EphA1 (Homo sapiens (Human), UniProt P21709); settings: EphA1, read-out: percent inhibition
EphA1, sequence (P21709 26-976): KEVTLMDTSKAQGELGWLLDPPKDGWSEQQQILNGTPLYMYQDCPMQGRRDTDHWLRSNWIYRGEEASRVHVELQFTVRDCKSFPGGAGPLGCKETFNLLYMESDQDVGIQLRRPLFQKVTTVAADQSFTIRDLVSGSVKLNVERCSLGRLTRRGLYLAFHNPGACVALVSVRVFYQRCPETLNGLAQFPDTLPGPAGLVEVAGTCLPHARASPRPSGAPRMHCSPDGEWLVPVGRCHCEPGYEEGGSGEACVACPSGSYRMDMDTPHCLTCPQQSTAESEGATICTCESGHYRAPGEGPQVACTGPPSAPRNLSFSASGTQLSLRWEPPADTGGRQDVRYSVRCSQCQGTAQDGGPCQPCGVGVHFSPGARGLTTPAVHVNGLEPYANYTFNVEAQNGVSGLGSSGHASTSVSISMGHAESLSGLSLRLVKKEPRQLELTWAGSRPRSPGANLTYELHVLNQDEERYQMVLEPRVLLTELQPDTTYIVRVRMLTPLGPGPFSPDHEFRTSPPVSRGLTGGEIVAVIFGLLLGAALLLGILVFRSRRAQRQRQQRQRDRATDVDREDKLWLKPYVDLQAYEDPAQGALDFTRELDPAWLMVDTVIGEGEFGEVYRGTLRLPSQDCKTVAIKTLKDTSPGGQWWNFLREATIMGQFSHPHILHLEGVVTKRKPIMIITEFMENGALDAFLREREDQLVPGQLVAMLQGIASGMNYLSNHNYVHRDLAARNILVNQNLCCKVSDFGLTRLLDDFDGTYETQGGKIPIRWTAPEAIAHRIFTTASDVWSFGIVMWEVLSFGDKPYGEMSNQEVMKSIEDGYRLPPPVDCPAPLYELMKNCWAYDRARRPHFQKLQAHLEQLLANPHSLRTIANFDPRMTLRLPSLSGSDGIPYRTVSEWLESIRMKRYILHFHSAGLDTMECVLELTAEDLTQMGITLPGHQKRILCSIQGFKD

FRAP = FRAP (Homo sapiens (Human), UniProt P42345); settings: FRAP, read-out: percent inhibition
FYN, SRC, YES = system: FYN, SRC, YES
GPRK6 = GPRK6 (Homo sapiens (Human), UniProt P43250); settings: GPRK6, read-out: percent inhibition
GPRK6, sequence (P43250 whole entry): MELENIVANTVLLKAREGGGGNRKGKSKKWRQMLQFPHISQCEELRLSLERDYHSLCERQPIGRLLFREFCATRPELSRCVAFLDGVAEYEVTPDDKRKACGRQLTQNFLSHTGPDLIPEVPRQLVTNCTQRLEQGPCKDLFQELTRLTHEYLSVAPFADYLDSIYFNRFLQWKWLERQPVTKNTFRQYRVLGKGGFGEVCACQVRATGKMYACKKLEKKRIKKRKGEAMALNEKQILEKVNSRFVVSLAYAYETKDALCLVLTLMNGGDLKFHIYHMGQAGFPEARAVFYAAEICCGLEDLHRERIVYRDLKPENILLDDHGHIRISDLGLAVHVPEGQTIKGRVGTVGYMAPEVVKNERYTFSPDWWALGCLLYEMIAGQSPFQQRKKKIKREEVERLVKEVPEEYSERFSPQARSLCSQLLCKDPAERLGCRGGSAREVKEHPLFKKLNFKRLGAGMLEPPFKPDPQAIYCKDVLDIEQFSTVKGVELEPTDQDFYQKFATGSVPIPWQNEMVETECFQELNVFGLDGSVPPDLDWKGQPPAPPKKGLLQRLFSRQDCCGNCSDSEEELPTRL

KSR1, KSR2 = system: KSR1, KSR2
LKB1 = LKB1 (Homo sapiens (Human), UniProt Q15831); settings: LKB1, read-out: percent inhibition
LYN = LYN (Homo sapiens (Human), UniProt P07948); settings: LYN, read-out: percent inhibition
MAP2K1 = MAP2K1 (Homo sapiens (Human), UniProt Q02750); settings: MAP2K1, read-out: percent inhibition
MAP2K1, MAP2K2 = system: MAP2K1, MAP2K2
MAP3K3 = MAP3K3 (Homo sapiens (Human), UniProt Q99759); settings: MAP3K3, read-out: percent inhibition
MLK3 = MLK3 (Homo sapiens (Human), UniProt Q16584); settings: MLK3, read-out: percent inhibition
MST4, YSK1 = system: MST4, YSK1
NDR1 = NDR1 (Homo sapiens (Human), UniProt Q15208); settings: NDR1, read-out: percent inhibition
NEK1 = NEK1 (Homo sapiens (Human), UniProt Q96PY6); settings: NEK1, read-out: percent inhibition
NEK1, sequence (Q96PY6 whole entry): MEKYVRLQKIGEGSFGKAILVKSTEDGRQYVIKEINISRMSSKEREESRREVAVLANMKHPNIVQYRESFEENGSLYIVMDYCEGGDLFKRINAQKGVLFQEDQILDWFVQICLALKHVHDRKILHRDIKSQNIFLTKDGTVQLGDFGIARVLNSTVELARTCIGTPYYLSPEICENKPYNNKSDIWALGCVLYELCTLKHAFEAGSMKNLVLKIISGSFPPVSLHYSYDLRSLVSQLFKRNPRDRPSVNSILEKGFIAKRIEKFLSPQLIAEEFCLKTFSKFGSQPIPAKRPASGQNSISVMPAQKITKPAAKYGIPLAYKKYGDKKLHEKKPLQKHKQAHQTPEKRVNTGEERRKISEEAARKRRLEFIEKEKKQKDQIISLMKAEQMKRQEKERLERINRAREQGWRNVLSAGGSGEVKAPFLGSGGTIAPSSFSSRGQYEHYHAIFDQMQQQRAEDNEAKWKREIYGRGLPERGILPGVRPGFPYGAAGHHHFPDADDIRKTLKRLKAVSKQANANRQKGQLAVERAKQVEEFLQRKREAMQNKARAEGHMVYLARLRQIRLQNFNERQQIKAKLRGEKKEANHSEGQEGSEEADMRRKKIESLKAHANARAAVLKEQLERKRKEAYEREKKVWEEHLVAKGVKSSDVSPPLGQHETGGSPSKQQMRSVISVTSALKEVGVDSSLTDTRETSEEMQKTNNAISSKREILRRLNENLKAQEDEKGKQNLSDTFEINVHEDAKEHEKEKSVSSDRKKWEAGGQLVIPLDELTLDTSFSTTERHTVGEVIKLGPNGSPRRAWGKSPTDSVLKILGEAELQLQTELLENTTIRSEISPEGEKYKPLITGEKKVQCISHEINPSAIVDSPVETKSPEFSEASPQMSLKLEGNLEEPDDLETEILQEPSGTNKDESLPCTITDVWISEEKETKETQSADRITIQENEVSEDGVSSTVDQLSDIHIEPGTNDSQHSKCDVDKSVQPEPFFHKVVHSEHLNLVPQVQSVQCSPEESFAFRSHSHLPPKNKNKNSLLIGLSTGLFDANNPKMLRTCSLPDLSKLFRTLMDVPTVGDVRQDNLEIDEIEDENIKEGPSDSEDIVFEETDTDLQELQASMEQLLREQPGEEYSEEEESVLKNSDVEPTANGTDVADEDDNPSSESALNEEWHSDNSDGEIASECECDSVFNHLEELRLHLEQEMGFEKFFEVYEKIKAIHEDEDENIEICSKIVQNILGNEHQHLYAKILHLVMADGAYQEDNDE

NEK6, NEK7 = system: NEK6, NEK7
OSR1 = OSR1 (Homo sapiens (Human), UniProt O95747); settings: OSR1, read-out: percent inhibition
p38a = p38a (Homo sapiens (Human), UniProt Q16539); settings: p38a, read-out: percent inhibition
p38d, p38g = system: p38d, p38g
p70S6K = p70S6K (Homo sapiens (Human), UniProt P23443); settings: p70S6K, read-out: percent inhibition
PIP4K2A = PIP4K2A (Homo sapiens (Human), UniProt P48426); settings: PIP4K2A, read-out: percent inhibition
PIP5K3 = PIP5K3 (Homo sapiens (Human), UniProt Q9Y2I7); settings: PIP5K3, read-out: percent inhibition
PITSLRE = system: PITSLRE
RIPK3 = RIPK3 (Homo sapiens (Human), UniProt Q9Y572); settings: RIPK3, read-out: percent inhibition
RSK2 domain1 = RSK2 domain1 (Homo sapiens (Human), UniProt P51812); settings: RSK2 domain1, read-out: percent inhibition
SMG1 = SMG1 (Homo sapiens (Human), UniProt Q96Q15); settings: SMG1, read-out: percent inhibition
STLK5 = STLK5 (Homo sapiens (Human), UniProt Q7RTN6); settings: STLK5, read-out: percent inhibition
TBK1 = TBK1 (Homo sapiens (Human), UniProt Q9UHD2); settings: TBK1, read-out: percent inhibition
TBK1, sequence (Q9UHD2 whole entry): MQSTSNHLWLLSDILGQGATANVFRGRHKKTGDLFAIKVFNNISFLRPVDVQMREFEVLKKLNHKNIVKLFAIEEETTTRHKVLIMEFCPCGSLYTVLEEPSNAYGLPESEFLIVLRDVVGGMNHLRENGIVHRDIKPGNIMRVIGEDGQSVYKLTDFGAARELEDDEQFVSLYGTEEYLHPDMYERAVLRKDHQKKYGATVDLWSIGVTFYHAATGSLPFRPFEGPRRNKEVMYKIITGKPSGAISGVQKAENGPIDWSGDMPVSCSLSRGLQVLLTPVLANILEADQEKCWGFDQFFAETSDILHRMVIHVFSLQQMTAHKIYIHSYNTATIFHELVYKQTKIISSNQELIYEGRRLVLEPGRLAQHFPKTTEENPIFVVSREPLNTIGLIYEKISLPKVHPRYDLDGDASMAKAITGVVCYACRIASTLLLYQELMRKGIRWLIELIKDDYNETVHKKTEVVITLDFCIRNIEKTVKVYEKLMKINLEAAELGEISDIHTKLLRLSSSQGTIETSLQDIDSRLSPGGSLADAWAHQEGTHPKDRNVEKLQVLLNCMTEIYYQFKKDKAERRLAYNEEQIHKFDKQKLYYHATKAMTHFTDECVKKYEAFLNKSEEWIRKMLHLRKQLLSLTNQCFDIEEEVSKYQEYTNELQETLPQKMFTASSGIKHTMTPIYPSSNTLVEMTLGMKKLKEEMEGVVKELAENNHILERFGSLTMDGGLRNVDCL

ULK3 = ULK3 (Homo sapiens (Human), UniProt Q6PHR2); settings: ULK3, read-out: percent inhibition
Wnk1, Wnk2, Wnk3 = system: Wnk1, Wnk2, Wnk3
Wnk1, Wnk2, Wnk4 = system: Wnk1, Wnk2, Wnk4
ZAP70 = ZAP70 (Homo sapiens (Human), UniProt P43403); settings: ZAP70, read-out: percent inhibition

CaMK1a, sequence (Q14012 whole entry): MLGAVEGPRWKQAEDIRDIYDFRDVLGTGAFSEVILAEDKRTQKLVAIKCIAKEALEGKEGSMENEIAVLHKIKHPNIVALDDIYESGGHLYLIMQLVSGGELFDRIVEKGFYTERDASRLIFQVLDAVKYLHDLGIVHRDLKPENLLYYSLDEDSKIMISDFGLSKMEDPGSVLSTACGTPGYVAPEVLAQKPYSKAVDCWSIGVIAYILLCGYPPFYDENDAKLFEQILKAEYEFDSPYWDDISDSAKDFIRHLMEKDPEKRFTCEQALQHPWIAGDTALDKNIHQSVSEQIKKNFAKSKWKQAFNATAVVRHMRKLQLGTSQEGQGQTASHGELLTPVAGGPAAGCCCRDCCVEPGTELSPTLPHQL

Which results are given for `Cn1cc(-c2c[nH]c3ncnc(N4CCOCC4)c23)cn1` [Example 1, 5-(1-Methyl-1H-pyrazol-4-yl)-4-(morpholin-4-yl)-7H-pyrrolo[2,3-d]pyrimidine]?
percent inhibition (AKT2, AKT3; 0.1 μM): 1.6%; percent inhibition (AKT2, AKT3; 1 μM): 10.7%; percent inhibition (AMPKa1, AMPKa2; 0.1 μM): 10.8%; percent inhibition (AMPKa1, AMPKa2; 1 μM): 49.7%; inhibition at 0.1 µM (CaMK1a; 0.1 μM): 2%; inhibition at 1 µM (CaMK1a; 1 μM): 6.3%; inhibition at 0.1 µM (CaMK2d; 0.1 μM): -45.3%; inhibition at 1 µM (CaMK2d; 1 μM): -38.1%; inhibition at 0.1 µM (CDK5; 0.1 μM): -6.5%; inhibition at 1 µM (CDK5; 1 μM): -35.1%; inhibition at 0.1 µM (CHK2; 0.1 μM): 0.9%; inhibition at 1 µM (CHK2; 1 μM): 17.7%; inhibition at 0.1 µM (EphA1; 0.1 μM): -9.5%; inhibition at 1 µM (EphA1; 1 μM): 19.6%; inhibition at 0.1 µM (FRAP; 0.1 μM): -3.2%; inhibition at 1 µM (FRAP; 1 μM): -1.2%; percent inhibition (FYN, SRC, YES; 0.1 μM): −24.1%; percent inhibition (FYN, SRC, YES; 1 μM): −56.3%; inhibition at 0.1 µM (GPRK6; 0.1 μM): 8.9%; inhibition at 1 µM (GPRK6; 1 μM): 23.7%; percent inhibition (KSR1, KSR2; 0.1 μM): 1.5%; percent inhibition (KSR1, KSR2; 1 μM): −14%; inhibition at 0.1 µM (LKB1; 0.1 μM): -1.1%; inhibition at 1 µM (LKB1; 1 μM): -14%; inhibition at 0.1 µM (LYN; 0.1 μM): 3.8%; inhibition at 1 µM (LYN; 1 μM): 7.8%; inhibition at 0.1 µM (MAP2K1; 0.1 μM): 3.5%; inhibition at 1 µM (MAP2K1; 1 μM): 17%; percent inhibition (MAP2K1, MAP2K2; 0.1 μM): 1%; percent inhibition (MAP2K1, MAP2K2; 1 μM): −2.2%; inhibition at 0.1 µM (MAP3K3; 0.1 μM): -9.2%; inhibition at 1 µM (MAP3K3; 1 μM): 7.2%; inhibition at 0.1 µM (MLK3; 0.1 μM): 1.4%; inhibition at 1 µM (MLK3; 1 μM): 4.5%; percent inhibition (MST4, YSK1; 0.1 μM): −11.4%; percent inhibition (MST4, YSK1; 1 μM): 15.1%; inhibition at 0.1 µM (NDR1; 0.1 μM): -19.6%; inhibition at 1 µM (NDR1; 1 μM): -7.8%; inhibition at 0.1 µM (NEK1; 0.1 μM): 7%; inhibition at 1 µM (NEK1; 1 μM): -10.1%; percent inhibition (NEK6, NEK7; 0.1 μM): −1.7%; percent inhibition (NEK6, NEK7; 1 μM): −17%; inhibition at 0.1 µM (OSR1; 0.1 μM): -7.8%; inhibition at 1 µM (OSR1; 1 μM): -4%; inhibition at 0.1 µM (p38a; 0.1 μM): -23.5%; inhibition at 1 µM (p38a; 1 μM): -19.8%; percent inhibition (p38d, p38g; 0.1 μM): −37.3%; percent inhibition (p38d, p38g; 1 μM): −24%; inhibition at 0.1 µM (p70S6K; 0.1 μM): 23%; inhibition at 1 µM (p70S6K; 1 μM): 18.9%; inhibition at 0.1 µM (PIP4K2A; 0.1 μM): 12.1%; inhibition at 1 µM (PIP4K2A; 1 μM): 6.8%; inhibition at 0.1 µM (PIP5K3; 0.1 μM): 1.9%; inhibition at 1 µM (PIP5K3; 1 μM): 15%; percent inhibition (PITSLRE; 0.1 μM): −13%; percent inhibition (PITSLRE; 1 μM): −3.2%; inhibition at 0.1 µM (RIPK3; 0.1 μM): 5.6%; inhibition at 1 µM (RIPK3; 1 μM): -4.2%; inhibition at 0.1 µM (RSK2 domain1; 0.1 μM): -6.8%; inhibition at 1 µM (RSK2 domain1; 1 μM): 5.6%; inhibition at 0.1 µM (SMG1; 0.1 μM): -1.3%; inhibition at 1 µM (SMG1; 1 μM): -19.2%; inhibition at 0.1 µM (STLK5; 0.1 μM): -1.5%; inhibition at 1 µM (STLK5; 1 μM): -46.5%; inhibition at 0.1 µM (TBK1; 0.1 μM): 0.1%; inhibition at 1 µM (TBK1; 1 μM): 13.4%; inhibition at 0.1 µM (ULK3; 0.1 μM): -1.9%; inhibition at 1 µM (ULK3; 1 μM): 8%; percent inhibition (Wnk1, Wnk2, Wnk3; 0.1 μM): −18.8%; percent inhibition (Wnk1, Wnk2, Wnk3; 1 μM): −24%; percent inhibition (Wnk1, Wnk2, Wnk4; 0.1 μM): −15%; percent inhibition (Wnk1, Wnk2, Wnk4; 1 μM): −13.5%; inhibition at 0.1 µM (ZAP70; 0.1 μM): -23.2%; inhibition at 1 µM (ZAP70; 1 μM): 3.1%
